Where two headings read alike, the source gives them in different places. Ends that are not written are not given here.

Results on two substances are retold here after PMC12147355, “Targeted destruction of follicle stimulating hormone receptor-positive cancer cells in vitro and in vivo by a lytic peptide Phor21-FSHβ conjugate” (Molecular Medicine, 2025).

For data set [1] the following is noted: mouse, in vivo.
Protocol: (§6) In each experimental set, the mice were sacrificed 3 days after the last injection. Total blood was collected via heart puncture under isoflurane anesthesia. The animals were euthanized by cervical dislocation. Body weight, selected organs, xenograft weights/volumes, and sizes were recorded at the time of necropsy. The xenografts and testes were fixed in 10% neutral buffered formalin or snap-frozen in liquid nitrogen for further experiments.
Data set [2] is described as follows: Body and organ weights at necropsy. Particulars: nude males xenografted with HEK293-FSHR cells, Fig. S4.
Protocol: as §6
The subject of another data set is LNCaP xenografts. Description: LNCaP cell xenografts in athymic nude male mice. Type of data set: in vivo. Conditions: Phor21 8 mg/kg/72 h, Phor21-FSHβ 2 or 8 mg, 21 days; for growth of LNCaP xenografts (total xenograft volume at necropsy): CTX 5 mg/kg/48h, n = 10–12. From the text: (§1) All the mouse experiments were approved by the local ethics committee of the Medical University of Bialystok, Poland. Athymic nude males (Crl: NU(NCr)-Foxn1^nu, 8–10 weeks old, 20–23 g) purchased from Charles River Laboratories International, Inc. (Sulzfeld, Germany; RRID: SCR_003792) were housed two or three per cage and provided with sterilized pellet chow and water. The animals were maintained in a pathogen-free mouse colony at the Center of Experimental Medicine Animal Facility (Bialystok, Poland).
(§2) HEK293-FSHR, HEK-293, and LNCaP cells were treated with trypsin when they were nearly confluent and were harvested. The cells were centrifuged at 1100 rpm for 5 min and resuspended in sterile non-supplemented culture medium mixed 1:1 with the Matrigel® matrix (Corning, Corning, USA). The cell suspension (1 × 10^6 cells/0.2 ml - HEK293-FSHR and HEK-293 cells; 5 × 10^6 cells/0.2 ml – LNCaP cells) was injected subcutaneously into the interscapulum area. When the xenograft volume reached 150–200 mm^3 (5–8 days after implantation), the xenograft-bearing mice were randomly divided into treatment groups, as described in Suppl Table 2.
Three independent xenograft experiments were conducted. In the first set, we tested whether the Phor21-FSHβ33–53 C/S conjugate selectively targeted and destroyed FSHR-expressing HEK293-FSHR cells, using a proof-of-concept experiment. CTX was used to inhibit FSH secretion, which competed with Phor21-FSHβ33–53 C/S for FSHR-binding sites (Suppl Table 2). In the second set of experiments, we tested the specificity of the Phor21-FSHβ33–53 C/S conjugate using FSHR-negative HEK293 cells xenografted into nude mice (Suppl Table 2). Finally, in the third set of in vivo experiments, we tested whether Phor21-FSHβ33–53 C/S conjugate treatment could inhibit the growth of human prostate cancer LNCaP cell xenografts (FSHR-negative cells) by destroying FSHR-positive endothelial cells in xenograft tissues, as reported previously (Radu et al. [2010]) (Suppl Table 2). Phor21-FSHβ33–53 C/S was later on addressed as Phor21-FSHβ. […]

The next data set concerns HEK-293 xenografts. Description: HEK-293 (FSHR-negative) cell xenografts in athymic nude male mice. It counts as in vivo. Particulars: 8 mg/kg/72 h, 21 days, n = 8–12.
Text: as §1, §2
(§3) Three independent xenograft experiments were conducted. In the first set, we tested whether the Phor21-FSHβ33–53 C/S conjugate selectively targeted and destroyed FSHR-expressing HEK293-FSHR cells, using a proof-of-concept experiment. […]

The test system of data set [3] is HEK-293 cells. Description: Caspase Glo 3/7 apoptosis assay, HEK-293 cells. Particulars: CTX 20 µM, 12 h. Type of data set: cell-based, human. On the procedure:
(§4) Caspase 3/7 activity was assessed using a Caspase Glo 3/7 kit (Promega) according to the manufacturer’s protocol. In brief, cells were seeded at 10,000/well in a 96-well plate, attached overnight, and treated with vehicle (CTR) or CTX (20 µM) for 12 h. Staurosporin (STS, 0.5 µM) was used as a positive inducer of caspase3/7-mediated apoptosis. The absolute luminescence was normalized to the vehicle-treated control value.

Another data set deals with FSH. Description: Plasma FSH immunofluorometric assay in xenografted mice. It counts as in vivo. Conditions: CTX 5 mg/kg/48h. The procedure:
The plasma levels of FSH were analyzed via an immunofluorometric assay using the Delfia Enhancer system (PerkinElmer, Turku, Finland) according to the protocol described by van Casteren et al. (Casteren et al. [2000]). The FSH assay sensitivity was 0.1 µg/L, with an intra-assay CV of 4.3% and an interassay CV of 9.8% at 4.8 µg/L. The rat FSH standard (a gift from Dr. Albert Parlow from the National Institute of Diabetes and Digestive and Kidney Diseases, Bethesda, Maryland, USA) was diluted in Diluent II buffer (DELFIA Diluent II, PerkinElmer) to concentrations ranging from 50 ng/ml to 0.02 ng/ml for rat FSH. Enhanced fluorescence signals (DELFIA Enhancement Solution; PerkinElmer) were measured using a Victor^2 fluorometer (PerkinElmer).

Data set [4] has as its system LNCaP cells. Description: Caspase Glo 3/7 apoptosis assay, LNCaP cells. Conditions: CTX 20 µM, 12 h. It counts as cell-based, human. The procedure:
as §4

The test system of data set [5] is HEK293-FSHR cells. Description: CyQUANT cell proliferation assay, HEK293-FSHR cells. It counts as cell-based, human. Particulars: CTX 1, 5, 10, or 20 µM, 48 h; three independent experiments (n = 8/experiment).
Protocol: Cell proliferation was determined using a CyQUANT Cell Proliferation Assay (C7026, Life Technologies, Thermo Fisher Scientific). […] After overnight incubation in the culture medium, the cells were starved for 4 h in basal non-supplemented DMEM/F12. The cells were then treated for 48 h with rhFSH (10, 100, or 1000 IU/L) or cetrorelix (CTX) (1, 5, 10, or 20 µM; Sigma-Aldrich), and 2.5% FSC was used as a positive control. After incubation, the medium was removed, and the plates with cells were frozen at −80 °C overnight. After thawing at room temperature (RT), 200 µl of CyQUANT GR dye/cell lysis buffer was added to each well and incubated for 5 min at room temperature (RT) in the dark. The fluorescence was read using a WALLAC Victor 2 1420 spectrophotometer (Perkin Elmer, Waltham, Massachusetts, USA) with ~ 480 nm excitation and ~ 520 nm emission maxima.
The subject of the next data set is HEK293-FSHR xenografts. The data set is described as follows: HEK293-FSHR cell xenografts in athymic nude male mice. Type of data set: in vivo.
Text: as §1, §2, §3

Data set [6] deals with HEK-293 cells. Description: CyQUANT cell proliferation assay, HEK-293 cells. It counts as cell-based, human. Conditions: CTX 1, 5, 10, or 20 µM, 48 h; three independent experiments (n = 8/experiment). The procedure: (§5) Cell proliferation was determined using a CyQUANT Cell Proliferation Assay (C7026, Life Technologies, Thermo Fisher Scientific). Prior to the experiments, HEK-293, HEK293-FSHR, and LNCaP cells were seeded in 96-well plates (7000 cells/well). After overnight incubation in the culture medium, the cells were starved for 4 h in basal non-supplemented DMEM/F12. […] After incubation, the medium was removed, and the plates with cells were frozen at −80 °C overnight. After thawing at room temperature (RT), 200 µl of CyQUANT GR dye/cell lysis buffer was added to each well and incubated for 5 min at room temperature (RT) in the dark. The fluorescence was read using a WALLAC Victor 2 1420 spectrophotometer (Perkin Elmer, Waltham, Massachusetts, USA) with ~ 480 nm excitation and ~ 520 nm emission maxima. The results were subtracted from a standard curve made from bacteriophage λ DNA (ranging from 50 pg/ml to 1.0 µg/ml) in CyQUANT GR/cell lysis buffer and are presented as absolute values.

Data set [7] in a line: Serum biochemical assay (Fuji Dri-Chem NX500). Type of data set: in vivo. Particulars: HEK293-FSHR xenograft mice (n=8-9); Fig S7. The procedure:
To quantify the serum levels of glucose, γ-glutamyltransferase (GGT), alanine aminotransferase (ALT) and aspartate aminotransferase (AST), biochemical assays were performed using Fuji Dri-Chem NX500 (Fujifilm Corporation®) according to the manufacturer’s instructions (Lei et al. [2021]).

Data set [8] deals with LNCaP cells. The data set is described as follows: CyQUANT cell proliferation assay, LNCaP cells. It counts as cell-based, human. Particulars: CTX 1, 5, 10, or 20 µM, 48 h; three independent experiments (n = 8/experiment). On the procedure:
as §5

Data set [9] deals with HEK293-FSHR cells. Description: Caspase Glo 3/7 apoptosis assay, HEK293-FSHR cells. It counts as cell-based, human. Particulars: CTX 20 µM, 12 h. The procedure: as §4

For “KFAKFAKKFAKFAKKFAKFAK-NH2 [Phor21, lytic peptide Phor21 backbone, triple heptade KFAKFAK]”, in data set [1], the “spleen weight / size” value is listed as “No significant differences”. In addition, in data set [2], the body weight result was “No significant differences” and the testis weight result is given as “No significant differences”. Besides, in the data set with LNCaP xenografts, the “histology of LNCaP xenografts” value is “no changes” and the “growth of LNCaP xenografts (total xenograft volume at necropsy)” value is recorded as “no changes”. Besides, the “growth of HEK-293 xenografts (total xenograft volume at necropsy)” value in the data set on HEK-293 xenografts is recorded as “did not affect the growth”.
Regarding cetrorelix [CTX], the “caspase 3/7 activity in HEK-293 cells” value in the data set on HEK-293 cells [3] was “activated”. For the same substance, the “FSH secretion (plasma FSH levels)” value in the data set on FSH (mice with HEK293-FSHR xenografts) is “significantly decreased”. Besides, the “FSH secretion (plasma FSH levels)” value in the data set on FSH (mice with LNCaP xenografts) is “inhibited FSH secretion”. Besides, the “caspase 3/7 activity in LNCaP cells” value in the data set on LNCaP cells [4] was “activated”. In addition, the “proliferation of HEK293-FSHR cells” value with HEK293-FSHR cells [5] is “dose-dependently decreased”. Further, the “histopathological analysis of xenograft tissues” value in the data set with HEK293-FSHR xenografts (histology, PARP1 staining) is given as “apoptosis”. The “xenograft growth compared with the control group (total xenograft volume at necropsy)” value in the data set on HEK293-FSHR xenografts (nude male mice, Phor21 8 mg/kg/72 h, Phor21-FSHβ 2 or 8 mg/kg/72 h, CTX 5 mg/kg/48h, 21 days, n = 10–12) is recorded as “reduced xenograft growth”. Besides, in the data set on HEK-293 cells [6], the “proliferation of HEK-293 cells” value is recorded as “dose-dependently decreased”. In addition, in data set [2], the “spleen weight / size” value was “increased” and the testis weight entry is recorded as “significantly reduced”. Further, in [7], the “serum ALT vs CTR group” value is given as “did not affect”, the “serum AST vs CTR group” value is given as “did not affect” and the “serum GGT vs CTR group” value is given as “did not affect”. Also, in the data set with LNCaP xenografts, the “growth of LNCaP xenografts (total xenograft volume at necropsy)” value is listed as “inhibited xenograft growth”. Besides, the “proliferation of LNCaP cells” value in the data set on LNCaP cells [8] is “dose-dependently decreased”. Also, the “caspase 3/7 activity in HEK293-FSHR cells” value in the data set on HEK293-FSHR cells [9] was “activated”.
